Measured values as given in patent publication US8008299B2, “Urotensin II receptor antagonists” (Janssen Pharmaceutica, N.V., priority 2007, dated 2011).
Read-outs that look alike come from different tables or passages of the source.

Columns and labels:
[1] = target: T1, Human UII (U-II receptor) in 6D9 human rhabdomyosarcoma cells (Homo sapiens, UniProt Q9UKP6); assay: Human UII Calcium Mobilization Assay; type: cell-based
T1 construct: 6D9: isolated by dilution subcloning of RMS13 cells, ATCC® Number: CRL-2061; host or cells: 6D9 human rhabdomyosarcoma cells (subclone of RMS13)
T1 sequence (Q9UKP6 1-389): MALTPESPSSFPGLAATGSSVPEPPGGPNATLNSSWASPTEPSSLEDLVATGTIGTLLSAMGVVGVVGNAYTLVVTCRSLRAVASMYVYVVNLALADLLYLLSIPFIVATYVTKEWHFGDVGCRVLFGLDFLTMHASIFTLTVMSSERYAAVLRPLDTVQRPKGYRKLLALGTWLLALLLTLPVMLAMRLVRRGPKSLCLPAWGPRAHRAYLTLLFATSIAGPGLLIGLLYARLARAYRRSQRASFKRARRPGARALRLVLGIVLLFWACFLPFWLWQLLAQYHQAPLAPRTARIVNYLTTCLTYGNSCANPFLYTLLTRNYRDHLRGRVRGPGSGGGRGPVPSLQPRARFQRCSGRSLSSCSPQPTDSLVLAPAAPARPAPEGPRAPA

[2] = target: T2, UT receptors in HSMM (Human Skeletal Muscle Myoblasts) (Homo sapiens, UniProt Q9UKP6); assay: Human Radioligand Binding Assay ((^125I)-U-II binding to intact HSMM)
T2 sequence (Q9UKP6 1-389): T1 sequence (Q9UKP6 1-389)

[3] = target: T3, rat GPR14 (U-II receptor) (Rattus norvegicus, UniProt P49684); assay: Rat UII Calcium Mobilization FLIPR Assay; type: cell-based; settings: CHO cells transfected with rat GPR14; antagonist activity after 5 min incubation vs agonist (Ac)-CFWK(2-NaI)C-NH2 at 1 nM
T3 construct: expressed in transfected cells
T3 sequence (P49684 1-386): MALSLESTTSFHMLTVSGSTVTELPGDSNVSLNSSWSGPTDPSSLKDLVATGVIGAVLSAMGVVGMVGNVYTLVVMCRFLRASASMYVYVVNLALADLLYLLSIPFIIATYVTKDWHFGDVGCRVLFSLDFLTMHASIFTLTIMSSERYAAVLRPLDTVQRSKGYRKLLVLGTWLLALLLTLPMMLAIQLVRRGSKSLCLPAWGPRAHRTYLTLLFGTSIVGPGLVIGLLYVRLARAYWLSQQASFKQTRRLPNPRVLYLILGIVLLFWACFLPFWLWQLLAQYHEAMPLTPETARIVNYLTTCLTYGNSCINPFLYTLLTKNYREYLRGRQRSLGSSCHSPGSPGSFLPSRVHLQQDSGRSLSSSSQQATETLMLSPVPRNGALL
Method in brief: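 Fluorescent calcium signals were recorded at room temperature (23° C) by FLIPR. Stable rat U-II receptor CHO lines had been dye-loaded for 1 h at 37° C in pH 7.4 HBSS containing 20 mM HEPES, 0.1% BSA and 2.5 mM probenecid.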

[4] = 6D9 human rhabdomyosarcoma cells, FLIPR TETRA, average, read-out: Human UII Ca+ Mobilization Average IC50

SMILES	IC50 [1, 4] [nM]	Ki [2] [nM]	IC50 [3] [nM]	Ki ([2]; read-out: Human UII Average Binding Ki, intact HSMM, 0.150 nM (^125I)-U-II, 3 h, 25° C.) [nM]	IC50 [1] [nM]
CCN1CCN(c2cccc3c2CN([C@H](CCCNC(=O)C(C)(C)C)c2ccc(OC)c(OC)c2)C3=O)CC1 [Cpd 83, N-{(4R)-4-(3,4-dimethoxy-phenyl)-4-[4-(4-ethyl-piperazin-1-yl)-1-oxo-1,3-dihydro-isoindol-2-yl]-butyl}-2,2-dimethyl-propionamide]	200	17	45		
CCN1CCN(c2cccc3c2CN([C@H](CCCNS(=O)(=O)c2cccs2)c2ccc(OC)c(OC)c2)C3=O)CC1 [Cpd 84, thiophene-2-sulfonic acid {(4R)-4-(3,4-dimethoxy-phenyl)-4-[4-(4-ethyl-piperazin-1-yl)-1-oxo-1,3-dihydro-isoindol-2-yl]-butyl}-amide]	8		1	4	
COc1ccc([C@@H](CCCNC(=O)c2cnoc2C)N2Cc3c(cccc3N3CCN(C(C)c4ccccc4)CC3)C2=O)cc1OC (stereo partly drawn) [Cpd 85, 5-methyl-isoxazole-4-carboxylic acid ((4R)-4-(3,4-dimethoxy-phenyl)-4-{1-oxo-4-[4-(1-phenyl-ethyl)-piperazin-1-yl]-1,3-dihydro-isoindol-2-yl}-butyl)-amide]		15	6		325
CCN1CCN(c2cccc3c2CN([C@H](CCCN(Cc2ccc(F)cc2)C2CC2)c2ccc(OC)c(OC)c2)C3=O)CC1 [Cpd 90, 2-[(1R)-4-[cyclopropyl-(4-fluoro-benzyl)-amino]-1-(3,4-dimethoxy-phenyl)-butyl]-4-(4-ethyl-piperazin-1-yl)-2,3-dihydro-isoindol-1-one]	168	34	6		
CCN1CCN(c2cccc3c2CN([C@H](CCCNCc2ccc(F)cc2)c2ccc(OC)c(OC)c2)C3=O)CC1 [Cpd 91, 2-[(1R)-1-(3,4-dimethoxy-phenyl)-4-(4-fluoro-benzylamino)-butyl]-4-(4-ethyl-piperazin-1-yl)-2,3-dihydro-isoindol-1-one]	106	62	3		
CCN1CCN(c2cccc3c2CN([C@H](CCCNc2ccccn2)c2ccc(OC)c(OC)c2)C3=O)CC1 [Cpd 92, 2-[(1R)-1-(3,4-dimethoxy-phenyl)-4-(pyridin-2-ylamino)-butyl]-4-(4-ethyl-piperazin-1-yl)-2,3-dihydro-isoindol-1-one]	911	60	74		

Further lines, with some results ahead:

IC50 [1, 4] [nM]	Ki [2] [nM]	IC50 [3] [nM]	SMILES	Ki ([2]; read-out: Human UII Average Binding Ki, intact HSMM, 0.150 nM (^125I)-U-II, 3 h, 25° C.) [nM]	IC50 [1] [nM]
555	125	82	CCN1CCN(c2cccc3c2CN([C@H](CCCNc2cccc[n+]2[O-])c2ccc(OC)c(OC)c2)C3=O)CC1 [Cpd 93, 2-[(1R)-1-(3,4-dimethoxy-phenyl)-4-(1-oxy-pyridin-2-ylamino)-butyl]-4-(4-ethyl-piperazin-1-yl)-2,3-dihydro-isoindol-1-one]		
74	43	4	CCN1CCN(c2cccc3c2CN([C@H](CCCN(C)Cc2ccco2)c2ccc(OC)c(OC)c2)C3=O)CC1 [Cpd 94, 2-[(1R)-1-(3,4-dimethoxy-phenyl)-4-(furan-2-ylmethyl-methyl-amino)-butyl]-4-(4-ethyl-piperazin-1-yl)-2,3-dihydro-isoindol-1-one]		
92	23	5	CCN1CCN(c2cccc3c2CN([C@H](CCCN(C)Cc2cccs2)c2ccc(OC)c(OC)c2)C3=O)CC1 [Cpd 95, 2-[(1R)-1-(3,4-dimethoxy-phenyl)-4-(methyl-thiophen-2-ylmethyl-amino)-butyl]-4-(4-ethyl-piperazin-1-yl)-2,3-dihydro-isoindol-1-one]		
152	69	15	CCN1CCN(c2cccc3c2CN([C@H](CCCN(Cc2ccccc2)C(C)C)c2ccc(OC)c(OC)c2)C3=O)CC1 [Cpd 96, 2-[(1R)-4-(benzyl-isopropyl-amino)-1-(3,4-dimethoxy-phenyl)-butyl]-4-(4-ethyl-piperazin-1-yl)-2,3-dihydro-isoindol-1-one]		
